The values below come from patent US8512958B2, “Methods of identifying agents that modulate mitochondrial function” (The J. David Gladstone Institutes, priority 2005, dated 2013).

Entries after “also recorded” stand apart in the source; their conditions may differ.

For test [1], the system named is differentiated PC12 cells. Description: Time-lapse recording of mitochondrial motility and morphology in neurites of differentiated PC12 cells (exogenous agents). To be noted: for mitochondrial motility, increase: nimodipine 5 μM together with AP5 50 μM, with or without apoE forms.
The next test concerns Neuro-2a cells. Description: MTT cell survival assay of Neuro-2a cells transiently transfected with apoE4 cDNA constructs. To be noted: expressed in Neuro-2a cells, MTT assay 48 h after transfection. It is filed as cell-based, mouse. The method, then: Cell Culture and Transfection. […] ApoE4 expression levels were determined by anti-apoE western blotting of cell lysates and media. […] Thus, the results are not due to overexpression.
Cell Survival. […] Cell survival was estimated with an MTT colorimetric assay (52) 48 h after transfection.

In test [2] the test system is rat primary cortical neurons. Description: Dendritic spine density (EGFP-β-actin, confocal microscopy) in primary cortical neurons. It is filed as cell-based. The method, then:
(§1) Cortices or hippocampi from neonatal rat pups were dissected and treated with papain (10 units ml^−1, 30 min; Worthington Biochemical, Lakewood, N.J.) and the with trypsin inhibitor (10 mg ml^−1, 15 min). Dissociated neurons were plated on 12-mm glass coverslips (Fisher Scientific, Hampton, N.H.) (8×10^5 cells per cm^2) coated with poly-L-lysine. After 2 h, cells were transferred into Neurobasal medium supplemented with B27, 1 mM L-glutamine, and 100 μg/ml penicillin/streptomycin (Invitrogen). Neurons were routinely transfected after 10 days in culture and used for experiments 5-7 days after transfection. Cells were maintained in a humidified incubator with 5% CO2 at 37° C.
Neuronal activation and inhibition.
(§2) Confocal Microscopy. Cultured primary neurons treated with various forms of apoE were fixed for 20 min in ice-cold 4% paraformaldehyde in PBS and mounted with Vectashield (Vector Laboratories Burlingame, Calif.). Digital images of EGFP and dsRed fluorescence in primary neurons were collected on a laser-scanning confocal microscope with a Bio-Rad Radiance 2000 scanhead (Bio-Rad, Hercules, Calif.) mounted on a BX60 microscope (Olympus, Melville, N.Y.) with a 60× oil objective.
To assess the effect of exogenous apoE on dendritic spine density, rat primary cortical and hippocampal neurons, which had been cultured for 14-17 days in vitro, were incubated with different forms of apoE (7.5 μg/ml) for 24 h. Four to six days before the experiment, the cells were transfected with EGFP-tagged β-actin (EGFP-β-actin), a cytoskeletal protein that is abundant in dendritic spines. […] Other measures of neuronal complexity (e.g., dendritic field and length of dendritic extensions) were not affected by any form of apoE. […] FIGS. 12A and 12B. […] (a) Confocal micrographs of synaptic EGFP-β-actin fluorescence in dendrites of rat primary cortical and hippocampal neurons (16 days in vitro) incubated for 24 h with or without (control) various forms of apoE (7.5 μg/ml). Scale bar=5 μm. (b) Number of spines per μm of dendritic extension. […]

In test [3] the test system is rat primary hippocampal neurons. Briefly: Dendritic spine density (EGFP-β-actin, confocal microscopy) in primary hippocampal neurons. The class given is cell-based. Conditions: apoE 7.5 μg/ml, 24 h. The method, then: as §1, §2
To assess the effect of exogenous apoE on dendritic spine density, rat primary cortical and hippocampal neurons, which had been cultured for 14-17 days in vitro, were incubated with different forms of apoE (7.5 μg/ml) for 24 h. […]

Test [4] deals with dendrites of primary cortical neurons. Description: Number, size and occupancy of mitochondria in dendrites of primary cortical neurons. The class given is cell-based, rat. To be noted: primary neurons treated with apoE.
Setting [5] is: repetitive depolarization with KCl 90 mM, 4×3 min.
Setting [6] is: cortical neurons, apoE 7.5 μg/ml, 24 h.

`COCCOC(=O)C1=C(C)NC(C)=C(C(=O)OC(C)C)C1c1cccc([N+](=O)[O-])c1` (centres unmarked) [nimodipine]: in test [1] (24 h), the “mitochondrial motility, increase” value is “about 30%”.

With `[Cl-].[K+]` [KCl], in test [1] (setting [5]), the “average moving velocity (moving distance/15 min) in the anterograde direction” value is reported as “drastically reduced”, the “mitochondrial moving velocity (moving distance/time moving)” value is “unaltered; also recorded: did not affect”, the “net moving distance in the anterograde direction” value was “drastically reduced” and the “retrograde motility (toward the soma)” value was “No significant changes”. Moreover, the “mitochondrial index, reduced” value in test [1] (repetitive depolarizations with KCl (4×, 90 mM)) turned out to be 22.5%.

With “Q284A: full-length WT apoE4 with single mutation Q284A”, in the test on Neuro-2a cells, the neurotoxicity entry is recorded as “as neurotoxic as apoE4(1-272)”.

Turning to “apoE4: Human apolipoprotein E4 isoform, 299 amino acids (SEQ ID NO:1); recombinant or expressed”, in test [2] (setting [6]), the “density of dendritic spines, decrease compared with controls” value is recorded as 13±5% and the “density of dendritic spines, reduction compared with apoE3” value stood at 27±5%. Besides, in test [2] (primary cortical neurons, apoE 7.5 μg/ml 24 h, repetitive KCl depolarization), the “spinal density in response to neuronal activation, reduced as compared to controls” value worked out at 48±11%. Also, in test [3], the “density of dendritic spines, decrease compared with controls” value was 19±5% and the “density of dendritic spines, reduction compared with apoE3” value is on record as 28±4%. The “extent of the mitochondrial motility response to neuronal activation, reduced to” value in test [1] (apoE 7.5 μg/ml 24 h, then repetitive depolarizations with KCl) was 30%. In test [1] (exogenous apoE 7.5 μg/ml, 24 h), the average mitochondrial length result is reported as “significantly reduced” and the “retrograde velocity / retrograde direction motility” value is “unaffected”. In addition, in test [4], the “number of mitochondria at dendritic spines compared with apoE3-treated cells or controls” value is “many fewer”.

Regarding `NC(CCCP(=O)(O)O)C(=O)O` (centres unmarked) [AP5, 2-amino-5-phosphonovalerate], the “mitochondrial motility, increase” value in test [1] (24 h) is “about 30%”.

In the case of `NC1=N[C@H](O)[C@H]2[C@H]3O[C@]4(O)O[C@@H]([C@@H](O)[C@@]2(N1)[C@@H]4O)[C@]3(O)CO` [TTX, tetrodotoxin], in test [1], the mitochondrial dynamics result is “increased” and the mitochondrial index result is reported as “without affecting; also recorded: not affected”.

Take “L279Q: full-length WT apoE4 with single mutation L279Q”: the neurotoxicity entry in the test on Neuro-2a cells is given as “as neurotoxic as apoE4(1-272)”.
